According to patent US7153855B2, “Pyrazolopyridinyl pyrimidine therapeutic compounds” (SmithKline Beecham Corporation, priority 2001, dated 2006):

System: HSV-1
Assay: HSV-1 infection of Vero 76 cells, viral DNA detected by hybridization capture (chemiluminescence)
Assay type: cell-based
Conditions: Human alphaherpesvirus 1; HSV-1 in Vero 76 cells, MOI=0.001, compounds incubated 40–48 hours at 37° C.; read-out: IC50
From the text: In the following example, “MEM” means Minimal Essential Media; “FBS” means Fetal Bovine Serum; “NP40” and “Igepal” are detergents; “MOI” means Multiplicity of Infection; “NaOH” means sodium hydroxide; “MgCl2” means magnesium chloride; “dATP” means deoxyadenosine 5′ triphosphate; “dUTP” means deoxyuridine 5′ triphosphate; “dCTP” means dexoxycytidine 5′ triphosphate; “dGTP” means deoxyguanosine 5′ triphosphate; “GuSCN” means Guanidinium thiocyanate; “EDTA” means ethylenediamine tetraacetic acid; “TE” means Tris-EDTA; “SCC” means sodium chloride/sodium citrate; “APE” means a solution of ammonia acetate, ammonia phosphate, EDTA; “PBS” means phosphate buffered saline; and “HRP” means horseradish peroxidase.
Vero 76 cells were maintained in MEM with Earle's salts, L-glutamine, 8% FBS (Hyclone, A-1111-L) and 100 units/mL Penicillin-100 μg/mL Streptomycin. For assay conditions, FBS was reduced to 2%. Cells are seeded into 96-well tissue culture plates at a density of 5×10^4 cells/well after being incubated for 45 min at 37° C. in the presence of HSV-1 or HSV-2 (MOI=0.001). Test compounds are added to the wells and the plates are incubated at 37° C. for 40–48 hours. Cell lysates are prepared as follows: media was removed and replaced with 150 μL/well 0.2 N NaOH with 1% Igepal CA 630 or NP-40. Plates were incubated up to 14 days at room temperature in a humidified chamber to prevent evaporation.
For the detection probe, a gel-purified, digoxigenin-labeled, 710-bp PCR fragment of the HSV UL-15 sequence was utilized. PCR conditions included 0.5 μM primers, 180 μM dTTP, 20 μM dUTP-digoxigenin (Boehringer Mannheim 1558706), 200 μM each of dATP, dCTP, and dGTP, 1×PCR Buffer II (Perkin Elmer), 2.5 mM MgCl2, 0.025 units/μL of AmpliTaq Gold polymerase (Perkin Elmer), and 5 ng of gel-purified HSV DNA per 100 μL Extension conditions were 10 min at 95° C., followed by 30 cycles of 95° C. for 1 min, 55° C. for 30 sec, and 72° C. for 2 min. The amplification was completed with a 10-min incubation at 72° C. Primers were selected to amplify a 728 bp probe spanning a section of the HSV1 UL15 open reading frame (nucleotides 249–977). Single-stranded transcripts were purified with Promega M13 Wizard kits. The final product was mixed 1:1 with a mixture of 6 M GuSCN, 100 mM EDTA and 200 μg/mL herring sperm DNA and stored at 4° C.
The capture DNA plasmid (HSV UL13 region in pUC) was linearized by cutting with Xba I, denatured for 15 min at 95° C. and diluted immediately into Reacti-Bind DNA Coating Solution (Pierce, 17250, diluted 1:1 with TE buffer, pH 8) at 1 ng/μL 75 μL/well were added to Corning (#3922 or 9690) white 96-well plates and incubated at room temperature for at least 4 hrs before washing twice with 300 μL/well 0.2×SSC/0.05% Tween-20 (SSC/T buffer). The plates were then incubated overnight at room temperature with 150 μL/well 0.2 N NaOH, 1% IGEPAL and 10 μg/mL herring sperm DNA.
Twenty-seven (27) μL of cell lysate was combined with 45 μL of hybridization solution (final concentration: 3M GuSCN, 50 mM EDTA, 100 μg/ml salmon sperm DNA, 5×Denhardt's solution, 0.25×APE, and 5 ng of the digoxigenin-labeled detection probe). APE is 1.5 M NH4-acetate, 0.15 M NH4H2 phosphate, and 5 mM EDTA adjusted to pH 6.0. Mineral oil (50 μL) was added to prevent evaporation. The hybridization plates were incubated at 95° C. for 10 minutes to denature the DNA, then incubated at 42° C. overnight. The wells were washed 6× with 300 μL/well SSC/T buffer then incubated with 75 μL/well anti-digoxigenin-HRP-conjugated antibody (Boehringer Mannheim 1207733, 1:5000 in TE) for 30 min at room temperature. The wells were washed 6× with 300 μL/well with PBS/0.05% Tween-20 before 75 μL/well SuperSignal LBA substrate (Pierce) was added. The plates were incubated at room temperature for 30 minutes and chemiluminescence was measured in a Wallac Victor reader.
The following results were obtained for HSV-1.

IC50 | Compound
300 nM | COc1ccc(-c2nn3c(NC4CCCC4)cccc3c2-c2ccnc(NC3CCCC3)n2)cc1 [Example 1, N-Cyclopentyl-3-[2-(cyclopentylamino)-4-pyrimidinyl]-2-(4-methoxyphenyl)-pyrazolo[1,5-a]pyridin-7-amine]
600 nM | COc1ccc(-c2nn3c(N4CCCC4)cccc3c2-c2ccnc(NC3CCCC3)n2)cc1 [Example 2, N-Cyclopentyl-4-[2-(4-methoxyphenyl)-7-(1-pyrrolidinyl)pyrazolo[1,5-a]pyridin-3-yl]-2-pyrimidinamine]
5000 nM | COc1ccc(-c2nn3c(N4CCCC4)cccc3c2-c2ccnc(N)n2)cc1 [Example 3, 4-[2-(4-Methoxyphenyl)-7-(1-pyrrolidinyl)pyrazolo[1,5-a]pyridin-3-yl]-2-pyrimidinamine]
1000 nM | Oc1ccc(-c2nn3c(NC4CCCC4)cccc3c2-c2ccnc(NC3CCCC3)n2)cc1 [Example 4, 4-{7-(Cyclopentylamino)-3-[2-(cyclopentylamino)-4-pyrimidinyl]pyrazolo-[1,5-a]pyridin-2-yl}phenol]
2000 nM | Oc1ccc(-c2nn3c(N4CCCC4)cccc3c2-c2ccnc(NC3CCCC3)n2)cc1 [Example 5, 4-[3-[2-(Cyclopentylamino)-4-pyrimidinyl]-7-(1-pyrrolidinyl)pyrazolo[1,5-a]pyridin-2-yl]phenol]
5000 nM | Nc1nccc(-c2c(-c3ccc(O)cc3)nn3c(N4CCCC4)cccc23)n1 [Example 6, 4-[3-(2-Amino-4-pyrimidinyl)-7-(1-pyrrolidinyl)pyrazolo[1,5-a]pyridin-2-yl]phenol]
150 nM | C=CCOc1ccc(-c2nn3c(NC4CCCC4)cccc3c2-c2ccnc(NC3CCCC3)n2)cc1 [Example 7, 2-[4-(Allyloxy)phenyl]-N-cyclopentyl-3-[2-(cyclopentylamino)-4-pyrimidinyl]pyrazolo[1,5-a]pyridin-7-amine]
3000 nM | CCOC(=O)COc1ccc(-c2nn3c(NC4CCCC4)cccc3c2-c2ccnc(NC3CCCC3)n2)cc1 [Example 8, Ethyl (4-{7-(cyclopentylamino)-3-[2-(cyclopentylamino)-4-pyrimidinyl]-pyrazolo[1,5-a]pyridin-2-yl}phenoxy)acetate]
300 nM | c1cc(NC2CCCC2)n2nc(-c3ccc(OCC4CC4)cc3)c(-c3ccnc(NC4CCCC4)n3)c2c1 [Example 11, N-Cyclopentyl-3-[2-(cyclopentylamino)-4-pyrimidinyl]-2-[4-(cyclopropyl-methoxy)phenyl]pyrazolo[1,5-a]pyridin-7-amine]
2000 nM | c1cc(NC2CCCC2)n2nc(-c3ccc(OCC4CCC4)cc3)c(-c3ccnc(NC4CCCC4)n3)c2c1 [Example 12, 2-[4-(Cyclobutylmethoxy)phenyl]-N-cyclopentyl-3-[2-(cyclopentylamino)-4-pyrimidinyl]pyrazolo[1,5-a]pyridin-7-amine]
1000 nM | c1ccc(Oc2ccc(-c3nn4c(NC5CCCC5)cccc4c3-c3ccnc(NC4CCCC4)n3)cc2)cc1 [Example 13, N-Cyclopentyl-3-[2-(cyclopentylamino)-4-pyrimidinyl]-2-(4-phenoxyphenyl)pyrazolo[1,5-a]pyridin-7-amine]
1000 nM | CCCCNc1nccc(-c2c(-c3ccc(-c4ccccc4)cc3)nn3c(NCCCC)cccc23)n1 [Example 15, 2-[1,1′-Biphenyl]-4-yl-N-butyl-3-[2-(butylamino)-4-pyrimidinyl]pyrazolo-[1,5-a]pyridin-7-amine]
1000 nM | CCCCNc1nccc(-c2c(-c3ccc(N)cc3)nn3c(NCCCC)cccc23)n1 [Example 16, N-{4-[2-(4-Aminophenyl)-7-(butylamino)pyrazolo[1,5-a]pyridin-3-yl]-2-pyrimidinyl}-N-butylamine]
1500 nM | CCCCNc1nccc(-c2c(-c3ccc(NC4CCCCC4)cc3)nn3c(NCCCC)cccc23)n1 [Example 17, N-Butyl-3-[2-(butylamino)-4-pyrimidinyl]-2-[4-(cyclohexylamino)phenyl]-pyrazolo[1,5-a]pyridin-7-amine]
9000 nM | C=C(C)c1ccc(-c2nn3c(NCCCC)cccc3c2-c2ccnc(NCCCC)n2)cc1 [Example 18, N-Butyl-3-[2-(butylamino)-4-pyrimidinyl]-2-(4-isopropenylphenyl)-pyrazolo[1,5-a]pyridin-7-amine]
500 nM | CCCCNc1nccc(-c2c(-c3ccc(Nc4ccccc4)cc3)nn3c(NCCCC)cccc23)n1 [Example 19, 2-(4-Anilinophenyl)-N-butyl-3-[2-(butylamino)-4-pyrimidinyl]pyrazolo[1,5-a]pyridin-7-amine]
16000 nM | CCCCNc1nccc(-c2c(-c3ccc(Nc4ccccc4)cc3)nn3c(N(CCCC)c4ccccc4)cccc23)n1 [Example 20, 2-(4-Anilinophenyl)-N-butyl-3-[2-(butylamino)-4-pyrimidinyl]-N-phenylpyrazolo[1,5-a]pyridin-7-amine]
15000 nM | CCCCNc1nccc(-c2c(-c3ccc(N(CC4CC4)CC4CC4)cc3)nn3c(NCCCC)cccc23)n1 [Example 21, 2-{4-[Bis(cyclopropylmethyl)amino]phenyl}-N-butyl-3-[2-(butylamino)-4-pyrimidinyl]pyrazolo[1,5-a]pyridin-7-amine]
600 nM | CCCCNc1nccc(-c2c(-c3ccc(NCC4CC4)cc3)nn3c(NCCCC)cccc23)n1 [Example 22, N-butyl-3-[2-(butylamino)-4-pyrimidinyl]-2-{4-[(cyclopropylmethyl)amino]phenyl}pyrazolo[1,5-a]pyridin-7-amine]
2000 nM | CCCCNc1nccc(-c2c(-c3ccc(N(C)C)cc3)nn3c(NCCCC)cccc23)n1 [Example 23, N-Butyl-3-[2-(butylamino)-4-pyrimidinyl]-2-[4-(dimethylamino)phenyl]-pyrazolo[1,5-a]pyridin-7-amine]
900 nM | Brc1ccccc1-c1nn2c(NC3CCCC3)cccc2c1-c1ccnc(NC2CCCC2)n1 [Example 24, 2-(2-Bromophenyl)-N-cyclopentyl-3-[2-(cyclopentylamino)-4-pyrimidinyl]pyrazolo[1,5-a]pyridin-7-amine]
200 nM | Brc1cccc(-c2nn3c(NC4CCCC4)cccc3c2-c2ccnc(NC3CCCC3)n2)c1 [Example 25, 2-(3-Bromophenyl)-N-cyclopentyl-3-[2-(cyclopentylamino)-4-pyrimidinyl]pyrazolo[1,5-a]pyridin-7-amine]
600 nM | Brc1cccc(-c2nn3c(N4CCCC4)cccc3c2-c2ccnc(NC3CCCC3)n2)c1 [Example 26, 4-[2-(3-Bromophenyl)-7-(1-pyrrolidinyl)pyrazolo[1,5-a]pyridin-3-yl]-N-cyclopentyl-2-pyrimidinamine]

Compound | IC50
CCCCOc1ccc(-c2nn3c(NC4CCCC4)cccc3c2-c2ccnc(NC3CCCC3)n2)cc1 [Example 9, 2-(4-Butoxyphenyl)-N-cyclopentyl-3-[2-(cyclopentylamino)-4-pyrimidinyl]-pyrazolo[1,5-a]pyridin-7-amine] | 3000 nM
CC(C)COc1ccc(-c2nn3c(NC4CCCC4)cccc3c2-c2ccnc(NC3CCCC3)n2)cc1 [Example 10, N-Cyclopentyl-3-[2-(cyclopentylamino)-4-pyrimidinyl]-2-(4-isobutoxyphenyl)pyrazolo [1,5-a]pyridin-7-amine] | 900 nM
